Several values for one entry are separate records, joined by “and”; a condition that tells them apart may be missing. Equal values may be shown once. Inconclusive results and toxic doses are left out.
System: BDF1 mice, P388 leukemia ip, median survival T/C
Test: NCI In Vivo Anticancer Drug Screen. Data for tumor model P388 Leukemia (intraperitoneal) in B6D2F1 (BDF1) mice
Conditions: endpoint: median survival time, higher = longer survival
Procedure, shortened: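 Antitumour effect was judged in vivo: survival in drug-treated mice, normalised to that of vehicle-dosed controls, gives the reported T/C.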

[1] = dose: 25.0 mg/kg/injection, schedule: Q04DX003 (ip), vehicle: saline with Tween-80
[2] = dose: 33.0 mg/kg/injection, schedule: Q04DX003 (ip), vehicle: saline with Tween-80
[3] = dose: 50.0 mg/kg/injection, schedule: Q04DX003 (ip), vehicle: saline with Tween-80
[4] = dose: 50.0 mg/kg/injection, schedule: Q04DX003 (ip), vehicle: saline
[5] = dose: 100.0 mg/kg/injection, schedule: Q04DX003 (ip), vehicle: Klucel (hydroxypropylcellulose) (HPC)
[6] = dose: 100.0 mg/kg/injection, schedule: Q04DX003 (ip), vehicle: saline with Tween-80
[7] = dose: 200.0 mg/kg/injection, schedule: Q01DX009 (ip), vehicle: Klucel (hydroxypropylcellulose) (HPC)
[8] = dose: 200.0 mg/kg/injection, schedule: Q04DX003 (ip), vehicle: Klucel (hydroxypropylcellulose) (HPC)
[9] = dose: 50.0 mg/kg/injection, schedule: Q01DX009 (ip), vehicle: saline
[10] = dose: 100.0 mg/kg/injection, schedule: Q01DX009 (ip), vehicle: saline
[11] = dose: 200.0 mg/kg/injection, schedule: Q04DX003 (ip), vehicle: saline with Tween-80
[12] = dose: 400.0 mg/kg/injection, schedule: Q04DX003 (ip), vehicle: Klucel (hydroxypropylcellulose) (HPC)

## O=C1N(Cl)C(=O)C(c2ccc(Cl)cc2)(c2ccc(Cl)cc2)N1Cl
dose: 22.0 mg/kg/injection, schedule: Q04DX003 (ip), vehicle: saline with Tween-80
  T/C: 115 % of control
dose: 22.0 mg/kg/injection, schedule: Q04DX003 (ip), vehicle: saline
  T/C: 91 % of control
dose: 25.0 mg/kg/injection, schedule: Q02DX005 (ip), vehicle: Klucel (hydroxypropylcellulose) (HPC)
  T/C: 110 % of control
dose: 25.0 mg/kg/injection, schedule: Q04DX003 (ip), vehicle: Klucel (hydroxypropylcellulose) (HPC)
  T/C: 105 % of control
[1]
  T/C: 104 % of control
dose: 30.0 mg/kg/injection, schedule: Q04DX003 (ip), vehicle: Klucel (hydroxypropylcellulose) (HPC)
  T/C: 100 % of control
[2]
  T/C: 123 % of control
dose: 33.0 mg/kg/injection, schedule: Q04DX003 (ip), vehicle: saline
  T/C: 116 % of control
dose: 38.5 mg/kg/injection, schedule: Q04DX003 (ip), vehicle: saline with Tween-80
  T/C: 120 % of control
dose: 50.0 mg/kg/injection, schedule: Q02DX005 (ip), vehicle: Klucel (hydroxypropylcellulose) (HPC)
  T/C: 124 % of control
dose: 50.0 mg/kg/injection, schedule: Q04DX003 (ip), vehicle: Klucel (hydroxypropylcellulose) (HPC)
  T/C: 96 % of control
[3]
  T/C: 153 % of control
[4]
  T/C: 120 % of control
dose: 60.0 mg/kg/injection, schedule: Q04DX003 (ip), vehicle: Klucel (hydroxypropylcellulose) (HPC)
  T/C: 111 % of control
dose: 75.0 mg/kg/injection, schedule: Q04DX003 (ip), vehicle: saline with Tween-80
  T/C: 150 % of control
dose: 75.0 mg/kg/injection, schedule: Q04DX003 (ip), vehicle: saline
  T/C: 120 % of control
dose: 100.0 mg/kg/injection, schedule: Q02DX005 (ip), vehicle: Klucel (hydroxypropylcellulose) (HPC)
  T/C: 151 % of control
[5]
  T/C: 96 % of control
dose: 100.0 mg/kg/injection, schedule: Q04DX003 (ip), vehicle: saline sonified
  T/C: 160 % of control
[6]
  T/C: 150 % of control and 154 % of control
dose: 132.0 mg/kg/injection, schedule: Q02DX005 (ip), vehicle: Klucel (hydroxypropylcellulose) (HPC)
  T/C: 150 % of control
dose: 132.0 mg/kg/injection, schedule: Q04DX003 (ip), vehicle: saline with Tween-80
  T/C: 112 % of control and 117 % of control
[7]
  T/C: 156 % of control
dose: 200.0 mg/kg/injection, schedule: Q02DX005 (ip), vehicle: Klucel (hydroxypropylcellulose) (HPC)
  T/C: 155 % of control and 171 % of control
[8]
  T/C: 98 % of control
dose: 200.0 mg/kg/injection, schedule: Q04DX003 (ip), vehicle: saline sonified
  T/C: 180 % of control
dose: 300.0 mg/kg/injection, schedule: Q01DX009 (ip), vehicle: Klucel (hydroxypropylcellulose) (HPC)
  T/C: 95 % of control
dose: 300.0 mg/kg/injection, schedule: Q02DX005 (ip), vehicle: Klucel (hydroxypropylcellulose) (HPC)
  T/C: 152 % of control
dose: 300.0 mg/kg/injection, schedule: Q04DX003 (ip), vehicle: Klucel (hydroxypropylcellulose) (HPC)
  T/C: 114 % of control
dose: 380.0 mg/kg/injection, schedule: Q04DX003 (ip), vehicle: Klucel (hydroxypropylcellulose) (HPC)
  T/C: 100 % of control
dose: 400.0 mg/kg/injection, schedule: Q04DX003 (ip), vehicle: saline sonified
  T/C: 190 % of control

## C=CCn1c(=O)n(CC=C)c(=O)n(CC=C)c1=O
dose: 100.0 mg/kg/injection, schedule: Q04DX003 (ip), vehicle: alcohol
  T/C: 100 % of control
dose: 200.0 mg/kg/injection, schedule: Q04DX003 (ip), vehicle: alcohol
  T/C: 104 % of control
dose: 400.0 mg/kg/injection, schedule: Q04DX003 (ip), vehicle: alcohol
  T/C: 109 % of control

## S=c1cc(-c2cccs2)ss1
[9]
  T/C: 109 % of control
[4]
  T/C: 108 % of control
[10]
  T/C: 96 % of control
dose: 100.0 mg/kg/injection, schedule: Q04DX003 (ip), vehicle: saline
  T/C: 115 % of control
dose: 200.0 mg/kg/injection, schedule: Q01DX009 (ip), vehicle: saline
  T/C: 100 % of control
dose: 200.0 mg/kg/injection, schedule: Q04DX003 (ip), vehicle: saline
  T/C: 105 % of control
dose: 400.0 mg/kg/injection, schedule: Q01DX009 (ip), vehicle: saline
  T/C: 91 % of control
dose: 400.0 mg/kg/injection, schedule: Q04DX003 (ip), vehicle: saline
  T/C: 107 % of control

## CC(C)CSC(C)C
dose: 25.0 mg/kg/injection, schedule: Q01DX009 (ip), vehicle: saline
  T/C: 110 % of control
[9]
  T/C: 110 % of control
[10]
  T/C: 110 % of control

## O=NN(CCF)C(=O)NC1CCC(NC(=O)N(CCF)N=O)CC1 (stereo unspecified)
dose: 16.5 mg/kg/injection, schedule: Q04DX003 (ip), vehicle: saline with Tween-80
  T/C: 186 % of control
[2]
  T/C: 272 % of control
dose: 66.0 mg/kg/injection, schedule: Q04DX003 (ip), vehicle: saline with Tween-80
  T/C: 272 % of control
[6]
  T/C: 272 % of control
dose: 132.0 mg/kg/injection, schedule: Q04DX003 (ip), vehicle: alcohol
  T/C: 272 % of control
[11]
  T/C: 200 % of control

## CC[C@@]1(O)C[C@H](OC2CC(N(C)C)C(O)C(C)O2)c2c(O)c3c(c(O)c2[C@H]1OC1CC(N(C)C)C(O)C(C)O1)C(=O)c1cccc(O)c1C3=O (stereo partly specified)
dose: 0.25 mg/kg/injection, schedule: Q01DX010 (ip), vehicle: saline
  T/C: 100 % of control

## CC12CCC3C4CCC(=O)C(O)=C4CCC3C1CCC2OC(=O)CCC1CCCC1 (stereo unspecified)
dose: 100.0 mg/kg/injection, schedule: Q04DX003 (sc), vehicle: steriod suspending solution
  T/C: 86 % of control
dose: 400.0 mg/kg/injection, schedule: Q04DX003 (sc), vehicle: steriod suspending solution
  T/C: 95 % of control

## CCOC(=O)CCC(NC(=O)c1ccc(N(C=O)CCOC=O)cc1)C(=O)OCC (stereo unspecified)
[3]
  T/C: 105 % of control
[6]
  T/C: 105 % of control
[11]
  T/C: 111 % of control

## CC1(C)C(O)(C#N)C(C)(C)C1(O)C#N (stereo unspecified)
dose: 3.13 mg/kg/injection, schedule: Q04DX003 (ip), vehicle: saline
  T/C: 100 % of control
dose: 6.25 mg/kg/injection, schedule: Q04DX003 (ip), vehicle: saline
  T/C: 109 % of control
dose: 12.5 mg/kg/injection, schedule: Q04DX003 (ip), vehicle: saline
  T/C: 95 % of control

## CCOC(=S)SCC(=O)Nc1ccc(Cl)cc1
dose: 75.0 mg/kg/injection, schedule: Q01DX009 (ip), vehicle: saline with Tween-80
  T/C: 110 % of control
dose: 150.0 mg/kg/injection, schedule: Q01DX009 (ip), vehicle: saline with Tween-80
  T/C: 89 % of control
dose: 300.0 mg/kg/injection, schedule: Q01DX009 (ip), vehicle: saline with Tween-80
  T/C: 89 % of control

## O=[N+]([O-])c1ccc(S(=O)(=O)c2ccc([N+](=O)[O-])c3no[n+]([O-])c23)cc1
dose: 15.0 mg/kg/injection, schedule: Q01DX009 (ip), vehicle: saline with Tween-80
  T/C: 100 % of control
dose: 30.0 mg/kg/injection, schedule: Q01DX009 (ip), vehicle: saline with Tween-80
  T/C: 90 % of control

## Cc1nc2c(NC(=O)CCl)nn(C)c2nc1C
[1]
  T/C: 105 % of control
[3]
  T/C: 110 % of control
[6]
  T/C: 95 % of control

## CCCCCCCC(O)CCCC (stereo unspecified)
[5]
  T/C: 87 % of control
[8]
  T/C: 91 % of control
[12]
  T/C: 91 % of control

## O=C(O)C(O)C(O)C(O)C(O)C(=O)O (stereo unspecified)
dose: 50.0 mg/kg/injection, schedule: Q01DX010 (ip), vehicle: saline
  T/C: 100 % of control
dose: 100.0 mg/kg/injection, schedule: Q01DX010 (ip), vehicle: saline
  T/C: 109 % of control
dose: 200.0 mg/kg/injection, schedule: Q01DX010 (ip), vehicle: saline
  T/C: 100 % of control
dose: 400.0 mg/kg/injection, schedule: Q01DX010 (ip), vehicle: saline
  T/C: 104 % of control
dose: 600.0 mg/kg/injection, schedule: Q01DX010 (ip), vehicle: saline
  T/C: 88 % of control
dose: 750.0 mg/kg/injection, schedule: Q01DX010 (ip), vehicle: saline
  T/C: 88 % of control

## Cc1ccc(Cl)c([N+](=O)[O-])c1N
dose: 50.0 mg/kg/injection, schedule: Q01DX009 (ip), vehicle: saline with Tween-80
  T/C: 104 % of control
dose: 100.0 mg/kg/injection, schedule: Q01DX009 (ip), vehicle: saline with Tween-80
  T/C: 87 % of control
dose: 200.0 mg/kg/injection, schedule: Q01DX009 (ip), vehicle: saline with Tween-80
  T/C: 91 % of control

## CN(C)c1ccc(C=O)cc1Br
dose: 50.0 mg/kg/injection, schedule: Q01DX009 (ip), vehicle: Klucel (hydroxypropylcellulose) (HPC)
  T/C: 95 % of control
dose: 100.0 mg/kg/injection, schedule: Q01DX009 (ip), vehicle: Klucel (hydroxypropylcellulose) (HPC)
  T/C: 95 % of control
[5]
  T/C: 100 % of control
[7]
  T/C: 100 % of control
[8]
  T/C: 100 % of control
[12]
  T/C: 100 % of control

From PubChem BioAssay AID328 (DTP/NCI, 2004)
